Results reported in patent US9302992B2, “Multifunctional quinoline derivatives as anti-neurodegenerative agents” (ANNJI PHARMACEUTICAL CO., LTD., priority 2013, dated 2016).

Legend:
[1] = system: undifferentiated PC12 cells; test: Neurite outgrowth on undifferentiated PC12 cells; type: cell-based; conditions: FIG. 4
neuron cells = test: Neuroprotection of neuron cells against fAβ; type: cell-based; conditions: for protection of neuron cells from zinc-induced fAβ: FIGS. 3A-B
Procedure: FIGS. 3A-B show compound C12 acting as a neuroprotective agent targeting fAβ.
(§1) Only compound C12 was effective toward zinc-free aggregates (FIG. 3B). […] Mice were assessed for the total duration of movement (FIG. 7A) and total duration of distance (FIG. 7B) to climb onto the hidden platform; and also quantified the appearance to target zone (FIG. 7C) indicating the relative time (compared to total time in swimming) to entry into a zone around the hidden platform; and for average swimming velocity (FIG. 7D) to discriminate enhanced memory from enhanced motor activity.

Aβ = Aβ (Homo sapiens, UniProt P05067); test: Aβ aggregation / fAβ formation, microscopy analysis after Congo red staining; type: biochemical
Chain of Aβ (P05067 672-711 limits assumed): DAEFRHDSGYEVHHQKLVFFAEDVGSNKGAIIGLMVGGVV

preformed Aβ aggregates = preformed Aβ aggregates (Homo sapiens, UniProt P05067); test: Dissolution of preformed Aβ aggregates; type: biochemical; conditions: FIG. 1B and FIG. 2
Chain of preformed Aβ aggregates (P05067 672-711 limits assumed): as above

fAβ-lesioned mice = test: Rotarod test in fAβ-lesioned mice; type: in vivo; conditions: FIG. 6; for riding time in rotarod test: 10 mg/kg, fAβ-lesioned mice; for performance of learning: fAβ-induced memory-deficit mice
[2] = system: memory-deficit fAβ-lesioned mice; test: Morris water maze test in memory-deficit fAβ-lesioned mice; type: in vivo; conditions: FIGS. 7A-D
Procedure: FIGS. 7A-D show the results of Morris water maze test.
as §1

[3] = system: memory-deficit fAβ-lesioned mice; test: GAP43 level and fAβ level in memory-deficit fAβ-lesioned mice; type: in vivo; conditions: FIG. 8
mice = test: Animal model: memory and toxicity in mice; type: in vivo; conditions: 1 to 100 mg/kg, preferable 1 to 10 mg/kg, i.p. daily; for toxicity: mice

CCOc1cccc2ccc(CCCCCCCCCCCO)nc12 [D3, 11-(8-ethoxyquinolin-2-yl)undecan-1-ol]
neurite outgrowth [1]: induction of neurite outgrowth

Oc1c(I)cc(Cl)c2cccnc12 [CQ, reference compound]
protection of neuron cells from zinc-induced fAβ (neuron cells): protected

COc1cccc2ccc(CCCCCCCCCCCO)nc12 [C3, 11-(8-methoxyquinolin-2-yl)undecan-1-ol]
neurite outgrowth [1]: induction of neurite outgrowth

COc1ccc(Cl)c2ccc(CCCCCCCCCCCO)nc12 [C12, 11-(5-chloro-8-methoxyquinolin-2-yl)undecan-1-ol]
polymerization of Aβ (Aβ; in the absence of zinc ions, FIG. 2): inhibiting polymerization of Aβ
Aβ aggregation (Aβ; in the presence or absence of zinc ions, Congo red staining, FIG. 1A): inhibited Aβ aggregation
dissolution of preformed Aβ aggregates (preformed Aβ aggregates): dissolved preformed Aβ aggregates
effectiveness toward zinc-free aggregates (neuron cells; zinc-free aggregates, FIG. 3B): effective
protection of neuron cells from zinc-induced fAβ (neuron cells): protected
riding time in rotarod test (fAβ-lesioned mice): increased riding time
performance of learning (fAβ-lesioned mice): improved performance of learning
learning in the Morris water maze test [2]: improved learning
GAP43 level [3]: increase in GAP43 level
fAβ level [3]: decrease in fAβ level
memory of mice (mice): improve memory of mice
toxicity (mice): without causing significant toxicity

OCCCCCCCCCCCc1ccc2cccc(O)c2n1 [B3, 2-(11-hydroxyundecyl)quinolin-8-ol]
neurite outgrowth [1]: induction of neurite outgrowth
riding time in rotarod test (fAβ-lesioned mice): increased riding time
performance of learning (fAβ-lesioned mice): improved performance of learning
memory of mice (mice): improve memory of mice
toxicity (mice): without causing significant toxicity
